Where two headings read alike, the source gives them in different places. Some results are limits rather than exact numbers.

This note sets out measurements from patent publication US20250177533A1, “PHOTODYNAMIC THERAPY AND DIAGNOSIS” (RMW CHO Group Limited, priority 2021, published 2025).

Data set [1] deals with SKOV3 ovarian cancer cells. Particulars: human, 5 μM.
For data set [2], the system named is Human ovarian cancer cell line SKOV3. In words: Phototoxicity in SKOV3 cells (660 nm laser or LED, AlamarBlue viability). The class given is cell-based. Particulars: for IC90: SKOV3, 24 h uptake, viability 24 h later. The source says:
All data are shown as mean±SD (where appropriate).
Media was then replaced with fresh media containing AlamarBlue, and % viable cells remaining assessed as above. […] All measurements were made in quadruplicate.

A short description of data set [3]: Determination of solubility of phyllochlorin analogues (absorbance maxima as surrogate measure). The class given is physicochemical. Here is the method:
Absorbance maxima were used as a surrogate measure of solubility. The relevant phyllochlorin analogue was diluted to 50 μM in PBS (phosphate buffered saline) solutions containing decreasing amounts of DMSO from 100% to 0%.
Where required, polyvinylpyrrolidone (K30) was added to a final concentration of 1% w/v. Absorbance was measured using a Cytation 3 Multimode Plate Reader (Biotek) in spectral scanning mode, with spectra captured between 500-800 nm in 2 nm increments. Equivalent blank solutions were also measured and subtracted accordingly. Each spectrum was normalized to have a minimum signal of 0, and a maximum signal in pure DMSO solution (the most soluble state) of 100%.
The solubility of compound 1 was assessed in solutions containing DMSO as an organic solvent. Compound 1 (50 μM final concentration) was resuspended in 100% DMSO to fully dissolve compound 1, in the presence or absence of 1% PVP (w/v). With concentrations of compound 1 maintained at 50 μM the % DMSO was decreased in a stepwise manner from 100% to 0%. All solutions were mixed by vortexing, then centrifuged for 2 mins to pellet any insoluble material. A 150 μl aliquot was transferred to individual wells of a 96-well clear microplate, and absorbance spectra collected between 500-800 nm in 2 nm increments. Equivalent solutions containing decreasing % DMSO were used to control for background.

A further data set has as its system E coli DH5α cells. Nature of the data set: Photosensitizer uptake into bacterial cells (absorbance spectra of lysates). The class given is cell-based. The note with it: 50 μM, incubated overnight. Here is the method:
E coli DH5α cells were inoculated into LB media and incubated overnight (shaking at 37° C.) in the presence of 50 μM compound 1 or chlorin e4 disodium. Untreated cells acted as the control. The following day cells were harvested by centrifugation (5000 g, 10 mins, room temperature) and lysed by addition of PBS+1% SDS (w/v)+1% PVP-17 (w/v). Insoluble material was pelleted by centrifugation at 21,000 g (10 mins, bench top centrifuge) and the supernatant transferred to a fresh tube. A 100 μl aliquot was added to clear 96-well microtitre plates and absorbance spectra measured between 600-700 nm (Cytation 3 multimode plate reader). The optical density (OD) was plotted against wavelength in each case to determine uptake of photosensitizer into cells.

Data set [4] deals with Human ovarian cancer cell line SKOV3. The note with it: 24 h.
Description: (§1) Serial dilutions were prepared in cell culture media (Dulbecco's Modified Eagle Medium/Nutrient Mixture F-12 (DMEM/F-12)) supplemented with 10% v/v Fetal Bovine Serum, 100 U/mL penicillin, 100 μg/mL streptomycin and the same excipient solution at a constant 1:55 dilution.
(§2) Human ovarian cancer cell line SKOV3 (ATCC #HTB-77) was maintained in Dulbecco's Modified Eagle Medium/Nutrient Mixture F-12 (DMEM/F-12), supplemented with 10% v/v Fetal Bovine Serum, 100 U/mL penicillin and 100 μg/mL streptomycin. Monolayer cultures were grown in a humidified incubator at 37° C. with 5% CO2. Once cells had reached ˜80% confluence, spent media was replaced with media containing photosensitizer at the required concentration and cells were incubated for the desired period of time to allow photosensitizer uptake.
(§3) Spectral absorbance and viability measurements were normalized in the range 0-100%, with a minimum of 0 and a maximum value determined from the dataset. Dose response was determined using a sigmoidal four-point non-linear regression with variable slope, and IC10 or IC90 calculated for each compound. All data are shown as mean±SD (where appropriate).
(§4) On reaching ˜60% confluence, media was aspirated and replaced with fresh media containing the relevant phyllochlorin analogue from 0-100 μM in DMSO.
(§5) Untreated cells were used as a control. […] All measurements were made in quadruplicate.
(§6) The phototoxicity and inherent cytotoxicity (i.e. “dark toxicity”) of phyllochlorin analogues were assessed as previously using SKOV3 ovarian cancer cells. For comparative purposes, phyllochlorin analogues were compared against chlorin e4 disodium and Talaporfin sodium, a clinically approved photosensitizer used in the photodynamic treatment of lung cancers.
Data set [5] shares this test system. In words: Inherent cytotoxicity (dark toxicity) in SKOV3 cells (AlamarBlue viability). Particulars: SKOV3, 24 h incubation, no light activation.
Description: as §1, §2, §3, §4, §5, §6
Data set [6] concerns SKOV3 ovarian cancer cells. Nature of the data set: Photosensitizer uptake into SKOV3 cancer cells (absorbance of cell lysates at 405 nm). Particulars: SKOV3, 5 μM.
Description: SKOV3 cells were seeded in 96-well black wall plates (Greiner #655090) at a cell density of 5000 cells in 100 μl culture medium per well. […] Cells were incubated for up to 18 hours. At time periods of 10 min, 20 min, 30 min, 60 min, 2 hrs, 4 hrs and 18 hrs, media was removed and the cells lysed in 100 μl of lysis buffer (PBS+1% SDS+1% PVP+Benzonase Nuclease 500 units/mL). Each sample was snap-frozen on dry ice until use.
Eight point standard curves using compound 1 or chlorin e4 disodium were constructed in the range 0-10 μM using serial dilutions in lysis buffer. Cell lysates (100 μl) were thawed, centrifuged at room temperature (21,000 g, 10 mins) and the supernatants transferred to fresh tubes. 100 μl of each supernatant was added neat to 96-well microplates and absorbance measured at 405 nm using a Cytation 3 multimode plate reader. All wells were measured against blank wells containing buffer alone, and a background value measured using untreated cells was subtracted from all samples. The concentration of each chlorin species was determined against the appropriate standard curve in each case.
Chlorin e4 disodium (which enters cells via a passive diffusion process) was included as a comparator, and untreated cells were used as a control. Cells were harvested at time periods from 10 mins to 18 hours post addition of photosensitizers, cells were lysed and the supernatants measured for uptake of photosensitizers against an appropriate standard curve.
[7] abbreviates: Homo sapiens, SK-OV-3, light or radiation study, 660 nm laser 50 mW/cm^2 for 5 mins (15 J/cm^2), read-out: Phototoxicity μM (IC90).
The mark [8] stands for this setting: Homo sapiens, SK-OV-3, light or radiation study, 660 nm LED panel 50 mW/cm^2 for 5 mins (15 J/cm^2), read-out: Phototoxicity μM (IC90), measured by LED.
[9] abbreviates: 660 nm laser 50 mW/cm^2 for 5 mins (15 J/cm^2), read-out: Phototoxicity μM (IC90).

For `CCC1=C(C)c2cc3[nH]c(cc4nc(c(C)c5cc(C)c(cc1n2)[nH]5)[C@@H](CCC(=O)OC)[C@@H]4C)c(C)c3C(C)OCCCS[C@@H]1O[C@H](CO)[C@@H](O)[C@H](O)[C@H]1O` (stereo partly drawn) [Compound 1, methyl 3-((7S,8S)-18-ethyl-2,5,8,12,17-pentamethyl-13-(1-(3-(((2S,3R,4S,5S,6R)-3,4,5-trihydroxy-6-(hydroxymethyl)tetrahydro-2H-pyran-2-yl)thio)propoxy)ethyl)-7H,8H-porphyrin-7-yl) propanoate], in data set [1], the “observed in cells (time of incubation)” value was at most 10 min, the rate of uptake result was “substantially faster than that of chlorin e4 disodium” and the “time the rate of uptake was maintained after addition of photosensitizer” value was 2 to 4 h. Besides, in data set [2] (setting [7]), the IC90 is 0.06 µM. Besides, the apparent solubility in data set [3] (50 μM, DMSO concentrations below 40%) is on record as around 45%. In data set [3] (50 μM, concentrations above 70% DMSO), the solubility result was “completely soluble”. Moreover, the “solubility in aqueous solution” value in data set [3] (50 μM, no DMSO, addition of PVP 1%) is reported as ~75 % of maximal. For the same compound, the absorbance maxima in data set [3] (in the presence of 1% PVP (w/v)) came out at 650±2 nm. Besides, the “detection in bacterial lysates” value in the data set with E coli DH5α cells is reported as “clearly detectible”. For the same compound, in data set [4], the “Dark toxicity μM (IC10)” value stood at 13.500 µM.

Take `CCC1=C(C)c2cc3[nH]c(cc4nc(c(C)c5cc(C)c(cc1n2)[nH]5)[C@@H](CCC(=O)N(C)CCOC)[C@@H]4C)c(C)c3COC(=O)NCCC[P+](c1ccccc1)(c1ccccc1)c1ccccc1` [Compound 50, phyllochlorin N-methyl-N-(2-methoxy)ethyl propylamide 13-(N-(3-triphenylphosphoniumpropyl)bromide)carbamate]: the “Dark toxicity μM (IC10)” value in data set [5] was determined as 0.470 µM. The IC90 in data set [2] (setting [8]) is 0.0016 µM.

Consider `C=Cc1c(C)c2cc3nc(c(C)c4[nH]c(cc5nc(cc1[nH]2)C(C)=C5CC)c(C)c4C(=O)O)[C@@H](CCC(=O)O)[C@@H]3C` [Chlorin e4 disodium, reference compound], for which the “Dark toxicity μM (IC10)” value in data set [5] was found to be 40.23 µM. In data set [6], the detectability in cells result was “undetectable until after one hour of incubation” and the “time of reaching maximum accumulation” value was 18 h. In addition, the concentration for an effect of 90% (IC90) in data set [2] (setting [9]) worked out at 21.3 µM. Further, in the data set on E coli DH5α cells, the “detection in bacterial lysates” value is “detected marginally above background”.

Take `CCC1=C(C)c2cc3[nH]c(cc4nc(c(C)c5cc(C)c(cc1n2)[nH]5)[C@@H](CCC(=O)OC)[C@@H]4C)c(C)c3COC(=O)NCCC[P+](c1ccccc1)(c1ccccc1)c1ccccc1` [Compound 45, phyllochlorin methyl ester 13-(N-(3-triphenylphosphoniumpropyl)bromide)carbamate]: the “Dark toxicity μM (IC10)” value in data set [5] turned out to be 3.977 µM. Also, the concentration for an effect of 90% (IC90) in data set [2] (setting [8]) stood at 0.0012 µM.

On to `CCOC(=O)CC[C@@H]1c2nc(cc3[nH]c(cc4nc(cc5[nH]c(cc5C)c2C)C(CC)=C4C)c(COC(=O)NCCC[P+](c2ccccc2)(c2ccccc2)c2ccccc2)c3C)[C@H]1C` [Compound 53, phyllochlorin ethyl ester 13-(N-(3-triphenylphosphoniumpropyl)bromide)carbamate], for which the “Dark toxicity μM (IC10)” value in data set [5] is 2.240 µM. For the same compound, in data set [2] (setting [8]), the IC90 turned out to be 0.00077 µM. The “greater phototoxicity compared to Talaporfin sodium” value in data set [2] (SKOV3, IC90) is 5 orders of magnitude.

In the case of “phyllochlorin 13-(N-(3-(3-triphenylphosphoniumpropoxy)propyl)chloride)carbamate N-methyl-N-3,6,9-trioxadecyl propylamide [Compound 44]”, the “Dark toxicity μM (IC10)” value in data set [5] was determined as 0.5603 µM. In addition, the IC90 in data set [2] (660 nm LED panel 50 mW/cm^2 for 5 mins (15 J/cm^2), read-out: Phototoxicity μM (IC90), measured by LED) turned out to be 0.0057 µM.

As to `CCC1=C(C)c2cc3[nH]c(cc4nc(c(C)c5cc(C)c(cc1n2)[nH]5)[C@@H](CCC(=O)OC)[C@@H]4C)c(C)c3COC(=O)NCCCOCCC[P+](c1ccccc1)(c1ccccc1)c1ccccc1` [Compound 40, phyllochlorin methyl ester 13-(N-(3-(3-triphenylphosphoniumpropoxy)propyl)chloride)carbamate], the “Dark toxicity μM (IC10)” value in data set [5] was 0.6145 µM. For the same compound, in data set [2] (setting [8]), the IC90 stood at 0.0008 µM.

Turning to “phyllochlorin methyl ester 3-triphenylphosphonium bromide propyl ether [Compound 21]”, in data set [5], the “Dark toxicity μM (IC10)” value was found to be 3.801 µM. Besides, the IC90 in data set [2] (setting [9]) was 0.012 µM.

On to `C=Cc1c(C)c2cc3nc(c(CC(=O)N[C@@H](CC(=O)O)C(=O)O)c4[nH]c(cc5nc(cc1[nH]2)C(C)=C5CC)c(C)c4C(=O)O)[C@@H](CCC(=O)O)[C@@H]3C` [Talaporfin sodium, reference compound], for which, in data set [5], the “Dark toxicity μM (IC10)” value was 11.10 µM.

`CCC1=C(C)c2cc3[nH]c(cc4nc(c(C)c5cc(C)c(cc1n2)[nH]5)[C@@H](CCC(=O)NCCOC)[C@@H]4C)c(C)c3COC(=O)NCCC[P+](c1ccccc1)(c1ccccc1)c1ccccc1` [Compound 52, phyllochlorin N-(2-methoxy)ethyl propylamide 13-(N-(3-triphenylphosphoniumpropyl)bromide)carbamate]: the “Dark toxicity μM (IC10)” value in data set [5] is 1.060 µM. Further, the IC90 in data set [2] (setting [8]) was 0.0052 µM.

For `CCC1=C(C)c2cc3[nH]c(cc4nc(c(C)c5cc(C)c(cc1n2)[nH]5)[C@@H](CCC(=O)OC)[C@@H]4C)c(C)c3C(C)OCCOCC[P+](c1ccccc1)(c1ccccc1)c1ccccc1` (stereo partly shown) [Compound 23, phyllochlorin methyl ester 2-(2-triphenylphosphoniumethoxy)ethyl ether chloride], the IC90 in data set [2] (setting [7]) was 0.012 µM. Also, the “Dark toxicity μM (IC10)” value in data set [4] is 3.086 µM.

For the compound `CCC1=C(C)c2cc3[nH]c(cc4nc(c(C)c5cc(C)c(cc1n2)[nH]5)[C@@H](CCC(=O)OC)[C@@H]4C)c(C)c3COC(=O)NCC[P+](c1ccccc1)(c1ccccc1)c1ccccc1` [Compound 46, phyllochlorin methyl ester 13-(N-(2-triphenylphosphoniumethyl)bromide)carbamate], the IC90 in data set [2] (setting [8]) came to 0.0014 µM. Besides, the “Dark toxicity μM (IC10)” value in data set [4] worked out at 1.277 µM.

In the case of `CCC1=C(C)c2cc3[nH]c(cc4nc(c(C)c5cc(C)c(cc1n2)[nH]5)[C@@H](CCC(=O)O)[C@@H]4C)c(C)c3CO` [Compound 17, phyllochlorin 13-hydroxymethyl], the IC90 in data set [2] (setting [7]) is 0.891 µM. The “Dark toxicity μM (IC10)” value in data set [4] is 25.000 µM.

For `CCC1=C(C)c2cc3[nH]c(cc4nc(c(C)c5cc(C)c(cc1n2)[nH]5)[C@@H](CCCO)[C@@H]4C)c(C)c3CO[C@@H]1O[C@H](CO)[C@@H](O)[C@H](O)[C@H]1O` [Compound 35, phyllochlorin 3-hydroxypropyl-13-hydroxymethyl-β-D-glucoside ether], the IC90 in data set [2] (setting [7]) came to 0.0467 µM. Also, the “Dark toxicity μM (IC10)” value in data set [4] worked out at 1.651 µM.

For the compound `CCC1=C(C)c2cc3[nH]c(cc4nc(c(C)c5cc(C)c(cc1n2)[nH]5)[C@@H](CCC(=O)OC)[C@@H]4C)c(C)c3COC(=O)NCCOC` [Compound 29, phyllochlorin methyl ester 13-(2-methoxyethyl)carbamate], in data set [2] (setting [8]), the IC90 was found to be 0.0867 µM. Also, the “Dark toxicity μM (IC10)” value in data set [4] turned out to be 30.000 µM.

For the compound `CCC1=C(C)c2cc3[nH]c(cc4nc(c(C)c5cc(C)c(cc1n2)[nH]5)[C@@H](CCC(=O)N(C)CCOCCOCCOCCOCCOCCOC)[C@@H]4C)c(C)c3CO` [Compound 24, phyllochlorin 13-hydroxymethyl N-methyl-N-3,6,9,12,15,18-hexaoxanonadecyl propylamide], the IC90 in data set [2] (setting [7]) worked out at 0.503 µM. For the same compound, in data set [4], the “Dark toxicity μM (IC10)” value stood at 41.190 µM.
